Results from patent US10695436B2, “Non-cleavable polymer conjugated with alpha V beta 3 integrin thyroid antagonists” (NANOPHARMACEUTICALS, LLC, priority 2016, dated 2020).

Assays:
[1] = test system: U87-luc cells; assay: GBM (U87-luc) xenografts, orthotopic and subcutaneous, 7 days treatment; format: in vivo, mouse; conditions: 1, 3 and 10 mg/kg, SC daily for 7 days
Protocol: Glioblastoma cells: U87-luc cells implanted orthotopically at 0.2×10^6 cell in 20 ul, in Matrigel and subcutaneously xenografted at 2×10^6 cells/implant with Matrigel in athymic female mice. Animals treated with polymers conjugated thyrointegrin antagonists, including derivatives of P-DAT 720, P-TAT 730 and bifunctional derivatives thereof for 7 days after 1 day post-implant and IVIS imaging of the brain tumor and subcutaneous tumor xenograft. […] FIGS. 38-40 depict the measurable dose-dependent effects of p-bi-TAT 1030 on brain GBM tumor and subcutaneous GBM tumor including the effect on luminescent signals of GBM in the brain, average tumor weight and bioluminescent intensity.

[2] = test system: Matrigel growth factors implant-mediated angiogenesis; assay: Mouse Matrigel-growth factors implant angiogenesis model (hemoglobin); format: in vivo; conditions: 10, 30, 100 μg/10 μl; day 14
Protocol: The mouse Matrigel model was performed in accordance with institutional guidelines for animal safety and welfare. Female mice C56/BL aged 5-6 weeks and body weights of 20 g were purchased from Taconic Farms (Hudson, N.Y., USA). The animals were maintained under specific pathogen-free conditions and housed 4 animals per cage, under controlled conditions of temperature (20-24° C.) and humidity (60-70%) and a 12 h light/dark cycle. The in vivo study carried out in the animal facility of the Veterans Affairs (VA) Medical Center, Albany, N.Y., and the experimental protocol approved by the VAIACUC. Mice were acclimated for 5 d prior to the start of experiments. […]
Polymer Conjugated DAT, TAT or MAT derivatives were tested at three different doses (10, 30, 100 μg/10 μl). […] At day 14-post plug implant, all animals were sacrificed and hemoglobin contents were quantitated using spectrophotometry. […]
Matrigel plug hemoglobin (Hb) content was indexed as a measure of new vascularity formation. […] A volume of 50 μl of supernatant were mixed with 50 μl of Drabkin's reagent and allowed to sit at room temperature for 15-30 min, after which 100 μl was placed in a 96-well plate and absorbance was measured at 540 nm with a Microplate Manager ELISA reader. The Hb concentration was expressed as mg/ml based on comparison with a standard curve.

[3] = test system: orthotropic brain GBM tumor and subcutaneous GBM xenografts; assay: Kinetics of Cy5 labeled conjugates in GBM tumors (IVIS imaging); format: in vivo
Protocol: Each group of animals was provided with orthotropic implants (GBM) and after tumor growth in the brain and subcutaneously implanted GBM Xenografts. Polymer conjugated MAT 210, TAT 230 or DAT 220 derivatives were injected subcutaneously with P-bi-TAT-Cy5 and other polymer conjugated TAT 230 or DAT 220 derivative-Cy5. IVIS imaging was performed immediately after injection and at 30 min, 1 h, 2 h, 3 h, 4 h to detect the fluorescence intensity at the orthotropic brain xenograft tumor site (brain) and subcutaneous xenografts tumors. […] The graphs depicted in FIGS. 34 and 35 describe the kinetics of the thyrointegrin antagonist derivatives' uptake into GBM tumors in the brain or subcutaneously implanted tumors. FIGS. 34-35 describe the effects of the polymer conjugated thyrointegrin antagonist derivatives containing MAT 210, DAT 220 and TAT 230 over time including bifunctional embodiments thereof.

[4] = test system: U87MG glioblastoma xenografts; assay: U87MG-luc glioblastoma subcutaneous xenografts in the nude mouse; format: in vivo
Protocol: The xenograft model of glioblastoma is a standard model for study of GBM. In the current studies, athymic, immunodeficient NCr nude mice aged 5-6 weeks and weighing 18-20 g were used. Animals were provided with ad libitum access to water and food. Animals allowed to acclimatize to the facility for 5 days prior to study. Cultured U87MG-luc cells were harvested and implanted subcutaneously (s.c.) in each flank (5×10^6 cells in 100 uL volumes containing 50% Matrigel) Tumors were grown for 2 days (to an initial volume of 150-250 mm^3) before administration of the control, C-DAT 1320, C-TAT 1330, P-TAT 730, P-bi-DAT 1020, P-bi-TAT 1030. Immediately before initiation of treatment at 2 days after implantation, animals were divided into control and treatment groups containing similar distributions of tumor volumes (calipers measurement). Polymer conjugated P-DAT 720 and P-TAT 730 (3 mg or 10 mg/kg body weight) was administered daily s.c. to two groups of animals×21 days, and vehicle (PBS, pH 8.0/0.5% ethanol) was administered daily s.c. to one group of animals as control×21 days. There were 4 animals and 8 grafts/treatment group. The control group and one group of drug-treated animals humanely sacrificed at 21 days; the second group of drug-treated mice observed off therapy for an additional 22 days to detect any tumor re-growth. The second drug-treated group thus observed for a total of 43 days. Tumors harvested and weighed, then fixed, sliced and subjected to hematoxylin and eosin (H&E) staining. Microscopic slides accommodated the full diameter of the control tumors. […]
Histologic evaluation of paraffin-embedded tissue sections were stained (hematoxylin and eosin), and each section was coded. The area of the section measured with a stage micrometer, and the percentage of viable vs. necrotic tumor, manifested by loss of cell density, dissolution of the plasma membrane and loss of nuclear structure estimated visually. The number of mitoses and apoptotic cells per high power field was counted for 5 fields of viable tumor areas and averaged per tissue section. […]

[5] = Safety studies, C57BL6 mice, 14 days; format: in vivo
Protocol: Preclinical toxicology of a representative of the polymer conjugated thyrointegrin antagonist antiangiogenic agent of P-bi-TAT was pursued in 5-to-6 week-old C57BL6 mice, treated for 14 days with varying doses of P-bi-TAT. The treatment groups were control (vehicle), 1 mg/kg, 3 mg/kg, 10 mg/kg, 30 mg/kg, 100 mg/kg and 330 mg/kg P-bi-TAT, administered daily s.c. for 14 days. Each treatment group consisted of 5 male and 5 female animals, and animal weights were measured twice weekly. Mice terminated after 14 days and blood samples collected from the retro-orbital venous plexus. Blood samples centrifuged, and harvested plasma was stored at −80° C. until subjected to analyses described below.
Liver function was estimated by measurement in stored plasma of alanine transaminase (ALT) and aspartate transaminase (AST) activities (Colorimetric kit, Biovision, Inc., Milpitas, Calif.) the data for which is shown in FIG. 44. Cardiac troponin I (cTnI) levels in plasma were measured by an ELISA method (Life Diagnostics, West Chester, Pa.) as an index of myocardial damage (FIG. 44). It is a troponin found exclusively in the heart and not in other forms of muscle. Kidney function estimated by measurement of plasma creatinine concentration (Colorimetric kit, Biovision, Inc.) (FIG. 44). Satisfactory standard curves were constructed for each of the liver and kidney assays. […]

[6] = test system: pancreatic cancer SUIT 2 xenografts; assay: Pancreatic cancer SUIT 2 xenografts, with or without radiation; format: in vivo, mouse; conditions: for Decrease in tumor size, combination with radiation / Decrease in cell viability, combination with radiation / Increase of necrosis, combination with radiation: vs. non-irradiated control; for Tumor weight reduction after 20 days / Increase in % cell necrosis in tissue sections / Percent reduction in tumor cell viability: no radiation
Protocol: Female NCr mice (Taconic Farms, Hudson, N.Y.) for in vivo studies obtained at 5-6 weeks of age (20 gm body weight) and maintained under specific pathogen-free conditions, and food and water provided ad libitum. The animals allowed to acclimate for 5 days. Cultured human SUIT 2 cells were harvested and implanted subcutaneously (s.c.) in each flank of the mice. Inocula comprising 100 μL, 50% Matrigel °, and containing 2×10^6 tumor cells was prepared. Tumors were grown for 7 days, at which time the animals were randomized into control and P-bi-TAT groups (6 animals/group, 12-carcinoma grafts/group). Starting on day 0, drug was administered at 3 or 10 mg of P-bi-TAT/kg body weight, daily for 20 days (to experimental day 19). Control animals received vehicle (PBS) daily. Animals were sacrificed on experimental day 20. Tumors were harvested and the weight of the tumors were measured. Tumors were formalin-fixed, imbedded in paraffin and sliced.
Effectiveness of radiation therapy, alone and in conjunction with P-bi-TAT was also assessed. The Radiation treatment was one Gy administered to right flank xenografts on days 10 and 17. Geometry of flank exposure excluded radiation exposure to the left flank of study animals, so that the left flank served as a control in the radiation studies.

O,O′-Bis({4-[3,5-diiodo-4-(1-methylen-1,2,3-triazol-4-ylmethoxy)phenoxy]-3,5-diiodophenyl}acetic acid) polyethylene glycol [P-bi-TAT]
Suppression of tumor and cell viability in brain and subcutaneous GBM tumor [1]: dose dependent suppression of the tumor | Anti-angiogenic effect (Matrigel plug hemoglobin levels) [2]: dose dependent response on angiogenesis | Cy5 signal in the brain over time ([3]; subcutaneous injection, IVIS up to 4 hours): seen in the brain at 30 minutes and sustained for the 4 hours of monitoring | Cy5 signal in brain GBM tumor versus subcutaneous GBM tumor xenografts ([3]; tumors removed after 4 hours): comparable | Reduction in tumor cell viability (histological score) ([4]; 3 mg P-bi-TAT/kg s.c. daily for 21 days): 62% | Reductions in cell viability achieved by day 21 ([4]; 3 mg/kg and 10 mg/kg dosages, histologic evaluation): 60-70% | Reduction in tumor cell viability (histological score) ([4]; 10 mg P-bi-TAT/kg s.c. daily for 21 days): 72% | Body weights ([5]; 1-330 mg/kg daily s.c. for 14 days): unaffected | Liver, heart or kidney toxicity (ALT, AST, cTnI, creatinine in plasma) ([5]; male and female mice, 2 weeks, up to 100-fold the efficacious dose (3-10 mg/kg)): no evidence of liver, heart or kidney toxicity | Decrease in tumor size, combination with radiation ([6]; 3 mg P-bi-TAT/kg plus one Gy radiation): 71% | Tumor weight reduction after 20 days ([6]; 3 mg/kg daily): 55% | Decrease in cell viability, combination with radiation ([6]; 3 mg/kg plus 1 Gy radiation): 54% | Increase of necrosis, combination with radiation ([6]; 3 mg/kg plus 1 Gy radiation): 65% | Increase in % cell necrosis in tissue sections ([6]; 3 mg/kg): not significant | Percent reduction in tumor cell viability ([6]; 3 mg/kg): insignificant | Decrease in tumor size, combination with radiation ([6]; 10 mg P-bi-TAT/kg plus one Gy radiation): 77% | Tumor weight reduction after 20 days ([6]; 10 mg/kg daily): 65% | Decrease in cell viability, combination with radiation ([6]; 10 mg/kg plus 1 Gy radiation): 68% | Increase of necrosis, combination with radiation ([6]; 10 mg/kg plus 1 Gy radiation): 70% | Increase in % cell necrosis in tissue sections ([6]; 10 mg/kg): more than a doubling | Percent reduction in tumor cell viability ([6]; 10 mg/kg): 43%
